Literature values in PubChem BioAssay AID1259409 (Chemical Carcinogenesis Research Information System (CCRIS), 2018).
“And” between values parts separate entries of the source, which are not always exact repeats. Identical values can stand only once.

Tested on: rodent chemically induced tumor inhibition, incidence and multiplicity
Experiment: CCRIS tumor inhibitor studies

| SMILES | outcome (Carcinogen: 4-(Methylnitrosamino)-1-(3-pyridyl)-1-butanone [64091-91-4] (NNK), Dose [Inhibitor]: 0, 7.5, 15, 30 mg/kg in diet for 17 wks, study duration 17 wks, Dose [Inhibitor]: 0, 7.5, 15, 30 mg/kg in diet for 17 wks, study duration 17 wks, Route [Inhibitor]: Oral, Species: Mouse, Strain/Sex: A/J/Male, Target Tissue: Type of Lesion: Lung, Dose [Carcinogen]: 100 mg NNK/kg bw once at 8 wks of age, study duration 17 wks) | tumour outcome (control, treated, inhibition, significance) (Carcinogen: N-METHYL-N-NITROSOUREA, 684-93-5, Dose [Inhibitor]: 0, 3.3 UG/KG OF DIET FOR 147 D (STUDY DURATION: 150 D), Route [Inhibitor]: ORAL, Species: RAT, Strain/Sex: SPRAGUE-DAWLEY/FEMALE, Target Tissue: Type of Lesion: MAMMARY GLAND: ADENOCARCINOMA, Dose [Carcinogen]: 50 MG/KG BW ONCE 3 D BEFORE INITIAL INHIBITOR DOSE, Promoter: NONE USED) | tumour outcome (control, treated, inhibition, significance) (Carcinogen: N-METHYL-N-NITROSOUREA, 684-93-5, Dose [Inhibitor]: 0, 10 UG/KG OF DIET FOR 147 D (STUDY DURATION: 150 D), Route [Inhibitor]: ORAL, Species: RAT, Strain/Sex: SPRAGUE-DAWLEY/FEMALE, Target Tissue: Type of Lesion: MAMMARY GLAND: ADENOCARCINOMA, Dose [Carcinogen]: 50 MG/KG BW ONCE 3 D BEFORE INITIAL INHIBITOR DOSE, Promoter: NONE USED) | tumour outcome (control, treated, inhibition, significance) (Carcinogen: N-METHYL-N-NITROSOUREA, 684-93-5, Dose [Inhibitor]: 0, 50 MG/KG OF DIET BEGINNING 1 WK PRIOR TO CARCINOGEN DOSE (STUDY DURATION: 14 MO), Route [Inhibitor]: ORAL, Species: RAT, Strain/Sex: WISTAR-UNILEVER/MALE, Target Tissue: Type of Lesion: PROSTATE: ADENOCARCINOMA, Dose [Carcinogen]: 30 MG/KG BW ONCE ADMINISTERED TO RATS PRETREATED WITH 50 MG OF CYPROTERONE ACETATE BY GAVAGE FOR 21 CONSECUTIVE DAYS THE, Promoter: TESTOSTERONE, 58-22-0) | tumour outcome (control, treated, inhibition, significance) (Carcinogen: N-METHYL-N-NITROSOUREA, 684-93-5, Dose [Inhibitor]: 0, 60 MG/KG OF DIET FOR 147 D (STUDY DURATION: 150 D), Route [Inhibitor]: ORAL, Species: RAT, Strain/Sex: SPRAGUE-DAWLEY/FEMALE, Target Tissue: Type of Lesion: MAMMARY GLAND: ADENOCARCINOMA, Dose [Carcinogen]: 50 MG/KG BW ONCE 3 D BEFORE INITIAL INHIBITOR DOSE, Promoter: NONE USED) | tumour outcome (control, treated, inhibition, significance) (Carcinogen: N-METHYL-N-NITROSOUREA, 684-93-5, Dose [Inhibitor]: 0, 60 MG/KG OF DIET FOR DURATION OF STUDY BEGINNING 1 WK POST CARCINOGEN DOSE (STUDY DURATION: 5 MO), Route [Inhibitor]: ORAL, Species: RAT, Strain/Sex: SPRAGUE-DAWLEY/FEMALE, Target Tissue: Type of Lesion: MAMMARY GLAND: TUMOR, Dose [Carcinogen]: 50 MG/KG BW ONCE, Promoter: NONE USED) | tumour outcome (control, treated, inhibition, significance) (Carcinogen: N-METHYL-N-NITROSOUREA, 684-93-5, Dose [Inhibitor]: 0, 100 MG/KG OF DIET BEGINNING 1 WK PRIOR TO CARCINOGEN DOSE (STUDY DURATION: 14 MO), Route [Inhibitor]: ORAL, Species: RAT, Strain/Sex: WISTAR-UNILEVER/MALE, Target Tissue: Type of Lesion: PROSTATE: ADENOCARCINOMA, Dose [Carcinogen]: 30 MG/KG BW ONCE ADMINISTERED TO RATS PRETREATED WITH 50 MG OF CYPROTERONE ACETATE BY GAVAGE FOR 21 CONSECUTIVE DAYS THE, Promoter: TESTOSTERONE, 58-22-0) | tumour outcome (control, treated, inhibition, significance) (Carcinogen: N-METHYL-NITROSOUREA [684-93-5], Dose [Inhibitor]: 60 MG/KG DIET BEGINNING 3 D POST-CARCINOGEN DOSE (STUDY DURATION: 150 D), Route [Inhibitor]: ORAL, Species: RAT, Strain/Sex: SPRAGUE-DAWLEY/FEMALE, Target Tissue: Type of Lesion: MAMMARY GLAND: ADENOCARCINOMA, Dose [Carcinogen]: 50 MG/KG BW ONCE AT 50 D OF AGE) | tumour outcome (control, treated, inhibition, significance) (Carcinogen: N-NITROSO-N-METHYLUREA, 684-93-5, Dose [Inhibitor]: 0, 60 MG/KG OF DIET FOR 3 MO BEGINNING 1 WK POST CARCINOGEN DOSE (STUDY DURATION: 100 D), Route [Inhibitor]: ORAL, Species: RAT, Strain/Sex: SPRAGUE-DAWLEY/FEMALE, Target Tissue: Type of Lesion: MAMMARY GLAND: TUMOR, Dose [Carcinogen]: 50 MG/KG BW ONCE, Promoter: NONE USED) | tumour outcome (control, treated, inhibition, significance) (Carcinogen: N-NITROSO-N-METHYLUREA, 684-93-5, Dose [Inhibitor]: 0, 60 MG/KG OF DIET FOR 4.5 MO BEGINNING 1 WK POST CARCINOGEN DOSE (STUDY DURATION: 100 D), Route [Inhibitor]: ORAL, Species: RAT, Strain/Sex: SPRAGUE-DAWLEY/FEMALE, Target Tissue: Type of Lesion: MAMMARY GLAND: TUMOR, Dose [Carcinogen]: 50 MG/KG BW ONCE, Promoter: NONE USED) | tumour outcome (control, treated, inhibition, significance) (Carcinogen: N-NITROSO-N-METHYLUREA, 684-93-5, Dose [Inhibitor]: 0, 120 MG/KG OF DIET FOR 3 MO BEGINNING 1 WK POST CARCINOGEN DOSE (STUDY DURATION: 100 D), Route [Inhibitor]: ORAL, Species: RAT, Strain/Sex: SPRAGUE-DAWLEY/FEMALE, Target Tissue: Type of Lesion: MAMMARY GLAND: TUMOR, Dose [Carcinogen]: 50 MG/KG BW ONCE, Promoter: NONE USED) | tumour outcome (control, treated, inhibition, significance) (Carcinogen: N-NITROSO-N-METHYLUREA, 684-93-5, Dose [Inhibitor]: 0, 120 MG/KG OF DIET FOR 4.5 MO BEGINNING 1 WK POST CARCINOGEN DOSE (STUDY DURATION: 100 D), Route [Inhibitor]: ORAL, Species: RAT, Strain/Sex: SPRAGUE-DAWLEY/FEMALE, Target Tissue: Type of Lesion: MAMMARY GLAND: TUMOR, Dose [Carcinogen]: 50 MG/KG BW ONCE, Promoter: NONE USED) | tumour outcome (control, treated, inhibition, significance) (Carcinogen: BENZO[A]PYRENE, 50-32-8, Dose [Inhibitor]: 0, 4.7 MICROMOLAR/D IN 0.1 ML PEANUT OIL BEGINNING 2 WK PRIOR TO CARCINOGEN TREATMENT AND CONTINUING TO 2 WK POST CARCIN, Route [Inhibitor]: GAVAGE, Species: MOUSE, Strain/Sex: SWISS/FEMALE, Target Tissue: Type of Lesion: FORESTOMACH: TUMOR, Dose [Carcinogen]: 1 MG 2/WK IN 0.1 ML PEANUT OIL FOR 4 WK, Promoter: NONE USED) |
| --- | --- | --- | --- | --- | --- | --- | --- | --- | --- | --- | --- | --- | --- |
| CC1=C(/C=C/C(C)=C\C=C\C(C)=C\C(=O)O)C(C)(C)CCC1 | 14/14 (100%); 13/14 (93%); 14/14 (100%); 11/13 (85%) | 25/25 (100%), 25/25 (100%), 0%, not significant | 25/25 (100%), 25/25 (100%), 0%, not significant | 22/34 (65%), 8/40 (20%), 70%, p<0.001 | 25/25 (100%), 24/25 (96%), 4%, not significant | 23/24 (96%), 9/12 (75%), 22%, p=0.1 and 29/30 (97%), 24/30 (80%), 18%, p=0.1 | 22/34 (65%), 7/38 (18%), 72%, p<0.001 | 25/25 (100%); 24/25 (96%), 4%, not significant | 100%, 58%, 42%, p<0.002 | 96%, 75%, 22%, not significant | 100%, 25%, 75%, p<0.001 | 96%, 42%, 56%, p<0.001 |  |
| CC1=C(/C=C/C(C)=C/C=C/C(C)=C/C=C/C=C(C)/C=C/C=C(\C)C=O)C(C)(C)CCC1 |  |  |  |  |  |  |  |  |  |  |  |  | 20/20 (100%), 5/20 (25%), 75%, p<0.001 |
